{"source": "patent US10716773B2", "about": "“Compositions comprising 15-HEPE and methods of treating or preventing cancer and neurologic disease” (Afimmune Limited, priority 2015, dated 2020)", "key": {"[1]": {"test_system": "normal human dermal fibroblasts (NHDF)", "test": "MTT reduction assay and observation of the cell layers: viability of fibroblasts after 48 hours of incubation; for Morpholigical observations: key: +: normal population; +/−: growth reduction; −: toxicity; 0: cell mortality; grains of compound; opacity of the compound; *: morphological modification; agglutinated cells", "format": "cell-based", "conditions": "for Visability (%): single replicates", "protocol": "Normal human dermal fibroblasts (NHDF) were used at the 8th passage. Cells were cultured at 37° C., 5% CO2 in DMEM supplemented with L-glutamine 2 mM, 50 U/ml Penicillin, 50 μg/ml Streptomycin and 10% Foetal calf serum (FCS)."}, "[2]": {"test_system": "caspase-3/7", "test": "Staurosporine-induced caspase-3/7 activity in NHDF, measured in cell lysates with fluorogenic substrate Ac-DEVD-AMC", "format": "cell-based, human", "conditions": "staurosporine-stimulated NHDF; for Caspase-3/7 activity (Fluorescence 380 nm/440 nm) / Caspase-3/7 activity - Background (Fluorescence 380 nm/440 nm) / Caspese-3/7 activity/proteins: single replicates", "protocol": "The potential inhibitory effect of compounds 15(S)-HEPE EE and EPA EE was evaluated on staurosporine-induced caspase activation in normal human dermal fibroblasts (NHDF). […] Normal human dermal fibroblasts (NHDF) were used at the 8th passage. […] Fibroblasts were seeded in 24-well plates and cultured for 24 hours in culture medium. The medium was then removed and replaced by assay medium containing or not (control) the test compounds and cells were pre-incubated for 24 hours. […] The cells were then incubated for 24 hours. Non-stimulated controls (without inducer) were performed in parallel. All experimental conditions were performed in n=3. […] Enzyme activity assay and protein quantification assay were performed in separated plates due to the fact that DTT used in the lysis buffer for caspase activity interferes with protein quantification. […] Lysis buffer: HEPES buffer (pH 7.4) containing EDTA, Triton X-100, NP-40 and DTT Assay Buffer: HEPES buffer (pH 7.4) containing NaCl, EDTA, NP-40, glycerol and DTT Substrate: Ac-DEVD-AMC, tested at 10 μM (stock solution at 1.5 mM in DMSO) Reference inhibitor: […] Ac-DEVD-AMC is a synthetic tetrapeptide fluorogenic substrate for caspase-3 and caspase-7 and contains the amino acid sequence of the PARP cleavage site at […]. […] Enzymes cleave the tetrapeptide between D and AMC resulting in the release of fluorogenic AMC, which can be quantified with a spectrofluorometer. […] In parallel, an additional control (assay buffer containing the substrate) was also performed to determine the background signal. At the end of incubation, the fluorescence intensity emitted by the reaction product (cleaved Ac-DEVD-AMC) was measured at wavelengths λex 380 nm and λem 440 nm using a spectrofluorimeter (SPECTRAmax® Gemini, Molecular Devices)."}}, "note": "Values joined by “and” are separate entries in the source; they are usually repeats but may differ in a detail not shown here. Equal entries are not always repeated."}
{"molecule": "CC/C=C\\C/C=C\\C/C=C\\C/C=C\\C/C=C\\CCCC(=O)OCC", "note": "[EPA EE]", "values": [{"measurement": "Morpholigical observations", "setting": "[1]; 0.001 μg/ml", "value": "+"}, {"measurement": "Visability (%) Mean", "setting": "[1]; 0.001 μg/ml", "value": 100, "unit": "%"}, {"measurement": "Visability (%)", "setting": "[1]; 0.001 μg/ml", "value": "99% and 97% and 104%"}, {"measurement": "Morpholigical observations", "setting": "[1]; 0.01 μg/ml", "value": "+"}, {"measurement": "Visability (%) Mean", "setting": "[1]; 0.01 μg/ml", "value": 98, "unit": "%"}, {"measurement": "Visability (%)", "setting": "[1]; 0.01 μg/ml", "value": "101% and 94% and 98%"}, {"measurement": "Morpholigical observations", "setting": "[1]; 0.1 μg/ml", "value": "+"}, {"measurement": "Visability (%) Mean", "setting": "[1]; 0.1 μg/ml", "value": 99, "unit": "%"}, {"measurement": "Visability (%)", "setting": "[1]; 0.1 μg/ml", "value": "99% (2×) and 98%"}, {"measurement": "Morpholigical observations", "setting": "[1]; 1 μg/ml", "value": "+"}, {"measurement": "Visability (%) Mean", "setting": "[1]; 1 μg/ml", "value": 97, "unit": "%"}, {"measurement": "Visability (%)", "setting": "[1]; 1 μg/ml", "value": "95% (2×) and 100%"}, {"measurement": "Morpholigical observations", "setting": "[1]; 10 μg/ml", "value": "+"}, {"measurement": "Visability (%) Mean", "setting": "[1]; 10 μg/ml", "value": 97, "unit": "%"}, {"measurement": "Visability (%)", "setting": "[1]; 10 μg/ml", "value": "94% and 98% and 100%"}, {"measurement": "Morpholigical observations", "setting": "[1]; 30 μg/ml", "value": "+"}, {"measurement": "Visability (%) Mean", "setting": "[1]; 30 μg/ml", "value": 96, "unit": "%"}, {"measurement": "Visability (%)", "setting": "[1]; 30 μg/ml", "value": "99% and 95% and 93%"}, {"measurement": "Morpholigical observations", "setting": "[1]; 100 μg/ml", "value": "+"}, {"measurement": "Visability (%) Mean", "setting": "[1]; 100 μg/ml", "value": 100, "unit": "%"}, {"measurement": "Visability (%)", "setting": "[1]; 100 μg/ml", "value": "102% and 98% and 100%"}, {"measurement": "Morpholigical observations", "setting": "[1]; 300 μg/ml", "value": "+"}, {"measurement": "Visability (%) Mean", "setting": "[1]; 300 μg/ml", "value": 106, "unit": "%"}, {"measurement": "Visability (%)", "setting": "[1]; 300 μg/ml", "value": "105% and 107% and 106%"}, {"measurement": "% inhibition", "setting": "[2]; 0.001 μg/ml", "value": "−31", "unit": "%"}, {"measurement": "% stimulated control", "setting": "[2]; 0.001 μg/ml", "value": 128, "unit": "%"}, {"measurement": "Normalized data: Mean (caspase-3/7 activity/proteins)", "setting": "[2]; 0.001 μg/ml", "value": 113173, "unit": "AU/mg"}, {"measurement": "Caspase-3/7 activity (Fluorescence 380 nm/440 nm)", "setting": "[2]; 0.001 μg/ml", "value": "1457 AU and 1667 AU and 1637 AU"}, {"measurement": "Caspase-3/7 activity - Background (Fluorescence 380 nm/440 nm)", "setting": "[2]; 0.001 μg/ml", "value": "1140 AU and 1350 AU and 1320 AU"}, {"measurement": "Caspese-3/7 activity/proteins", "setting": "[2]; 0.001 μg/ml", "value": "100237 AU/mg and 128199 AU/mg and 111084 AU/mg"}, {"measurement": "% inhibition", "setting": "[2]; 0.01 μg/ml", "value": "−1", "unit": "%"}, {"measurement": "% stimulated control", "setting": "[2]; 0.01 μg/ml", "value": 101, "unit": "%"}, {"measurement": "Normalized data: Mean (caspase-3/7 activity/proteins)", "setting": "[2]; 0.01 μg/ml", "value": 89425, "unit": "AU/mg"}, {"measurement": "Caspase-3/7 activity (Fluorescence 380 nm/440 nm)", "setting": "[2]; 0.01 μg/ml", "value": "1359 AU and 1476 AU and 1472 AU"}, {"measurement": "Caspase-3/7 activity - Background (Fluorescence 380 nm/440 nm)", "setting": "[2]; 0.01 μg/ml", "value": "1042 AU and 1159 AU and 1155 AU"}, {"measurement": "Caspese-3/7 activity/proteins", "setting": "[2]; 0.01 μg/ml", "value": "89522 AU/mg and 89043 AU/mg and 89708 AU/mg"}, {"measurement": "% inhibition", "setting": "[2]; 0.1 μg/ml", "value": 5, "unit": "%"}, {"measurement": "% stimulated control", "setting": "[2]; 0.1 μg/ml", "value": 95, "unit": "%"}, {"measurement": "Normalized data: Mean (caspase-3/7 activity/proteins)", "setting": "[2]; 0.1 μg/ml", "value": 84209, "unit": "AU/mg"}, {"measurement": "Caspase-3/7 activity (Fluorescence 380 nm/440 nm)", "setting": "[2]; 0.1 μg/ml", "value": "1474 AU and 1382 AU and 1558 AU"}, {"measurement": "Caspase-3/7 activity - Background (Fluorescence 380 nm/440 nm)", "setting": "[2]; 0.1 μg/ml", "value": "1157 AU and 1065 AU and 1241 AU"}, {"measurement": "Caspese-3/7 activity/proteins", "setting": "[2]; 0.1 μg/ml", "value": "83312 AU/mg and 79809 AU/mg and 89506 AU/mg"}, {"measurement": "% inhibition", "setting": "[2]; 1 μg/ml", "value": "−3", "unit": "%"}, {"measurement": "% stimulated control", "setting": "[2]; 1 μg/ml", "value": 103, "unit": "%"}, {"measurement": "Normalized data: Mean (caspase-3/7 activity/proteins)", "setting": "[2]; 1 μg/ml", "value": 90527, "unit": "AU/mg"}, {"measurement": "Caspase-3/7 activity (Fluorescence 380 nm/440 nm)", "setting": "[2]; 1 μg/ml", "value": "1423 AU and 1604 AU and 1486 AU"}, {"measurement": "Caspase-3/7 activity - Background (Fluorescence 380 nm/440 nm)", "setting": "[2]; 1 μg/ml", "value": "1106 AU and 1287 AU and 1169 AU"}, {"measurement": "Caspese-3/7 activity/proteins", "setting": "[2]; 1 μg/ml", "value": "87358 AU/mg and 96851 AU/mg and 87370 AU/mg"}, {"measurement": "% inhibition", "setting": "[2]; 10 μg/ml", "value": 2, "unit": "%"}, {"measurement": "% stimulated control", "setting": "[2]; 10 μg/ml", "value": 98, "unit": "%"}, {"measurement": "Normalized data: Mean (caspase-3/7 activity/proteins)", "setting": "[2]; 10 μg/ml", "value": 86723, "unit": "AU/mg"}, {"measurement": "Caspase-3/7 activity (Fluorescence 380 nm/440 nm)", "setting": "[2]; 10 μg/ml", "value": "1335 AU and 1264 AU and 1458 AU"}, {"measurement": "Caspase-3/7 activity - Background (Fluorescence 380 nm/440 nm)", "setting": "[2]; 10 μg/ml", "value": "1018 AU and 947 AU and 1141 AU"}, {"measurement": "Caspese-3/7 activity/proteins", "setting": "[2]; 10 μg/ml", "value": "78044 AU/mg and 76787 AU/mg and 105337 AU/mg"}, {"measurement": "% inhibition", "setting": "[2]; 100 μg/ml", "value": 61, "unit": "%"}, {"measurement": "% stimulated control", "setting": "[2]; 100 μg/ml", "value": 45, "unit": "%"}, {"measurement": "Normalized data: Mean (caspase-3/7 activity/proteins)", "setting": "[2]; 100 μg/ml", "value": 39319, "unit": "AU/mg"}, {"measurement": "effect on caspase-3/7 activity (in words)", "setting": "[2]; 100 μg/ml", "value": "clear inhibitory effect"}, {"measurement": "Caspase-3/7 activity (Fluorescence 380 nm/440 nm)", "setting": "[2]; 100 μg/ml", "value": "807 AU and 843 AU and 1068 AU"}, {"measurement": "Caspase-3/7 activity - Background (Fluorescence 380 nm/440 nm)", "setting": "[2]; 100 μg/ml", "value": "490 AU and 526 AU and 751 AU"}, {"measurement": "Caspese-3/7 activity/proteins", "setting": "[2]; 100 μg/ml", "value": "29572 AU/mg and 37623 AU/mg and 50763 AU/mg"}, {"measurement": "effect on caspase-3/7 activity (in words)", "setting": "[2]; tested from 0.001 to 10 μg/ml", "value": "no effect"}]}
